ChEMBL document CHEMBL3352214, “Studies on indolizines. Evaluation of their biological properties as microtubule-interacting agents and as melanoma targeting compounds” (Eur J Med Chem, 2015)

What was measured:
Ovis aries = species: Ovis aries; test: Inhibition of sheep brain tubulin polymerization at 100 uM by fluorescence assay
[1] = Growth inhibition of human MOLT4 cells at 10^-5 M after 48 hrs by SRB assay; assay type: functional; settings: MOLT-4, 48 h, read-out: GI
HL-60(TB) = test: Growth inhibition of human HL-60(TB) cells at 10^-5 M after 48 hrs by SRB assay; assay type: functional; settings: HL-60, 48 h, read-out: GI
[2] = Growth inhibition of human HOP92 cells at 10^-5 M after 48 hrs by SRB assay; assay type: functional; settings: HOP-92, 48 h, read-out: GI
[3] = Growth inhibition of human EKVX cells at 10^-5 M after 48 hrs by SRB assay; assay type: functional; settings: read-out: GI
NCI-H522 = test: Growth inhibition of human NCI-H522 cells at 10^-5 M after 48 hrs by SRB assay; assay type: functional; settings: NCI-H522, 48 h, read-out: GI
[4] = Growth inhibition of human HCT116 cells at 10^-5 M after 48 hrs by SRB assay; assay type: functional; settings: HCT-116, 48 h, read-out: GI
[5] = Growth inhibition of human HCT15 cells at 10^-5 M after 48 hrs by SRB assay; assay type: functional; settings: HCT-15, 48 h, read-out: GI
MDA-MB-435 = test: Growth inhibition of human MDA-MB-435 cells at 10^-5 M after 48 hrs by SRB assay; assay type: functional; settings: MDA-MB-435, 48 h, read-out: GI
Malme-3M = test: Growth inhibition of human MALME-3M cells at 10^-5 M after 48 hrs by SRB assay; assay type: functional; settings: read-out: GI
A498 = test: Growth inhibition of human A498 cells at 10^-5 M after 48 hrs by SRB assay; assay type: functional; settings: A498, 48 h, read-out: GI
CAKI-1 = test: Growth inhibition of human Caki1 cells at 10^-5 M after 48 hrs by SRB assay; assay type: functional; settings: CAKI-1, 48 h, read-out: GI
[6] = Growth inhibition of human PC3 cells at 10^-5 M after 48 hrs by SRB assay; assay type: functional; settings: PC-3, 48 h, read-out: GI
[7] = Growth inhibition of human SF295 cells at 10^-5 M after 48 hrs by SRB assay; assay type: functional; settings: SF-295, 48 h, read-out: GI
SNB-75 = test: Growth inhibition of human SNB75 cells at 10^-5 M after 48 hrs by SRB assay; assay type: functional; settings: SNB-75, 48 h, read-out: GI
MCF7 = test: Growth inhibition of human MCF7 cells at 10^-5 M after 48 hrs by SRB assay; assay type: functional; settings: MCF7, 48 h, read-out: GI
T47D = test: Growth inhibition of human T47D cells at 10^-5 M after 48 hrs by SRB assay; assay type: functional; settings: Homo sapiens, T47D, 48 h; read-out: GI

Structure (SMILES) | inhibition (Ovis aries) | inhibition of growth at 10 µM [1] | inhibition of growth at 10 µM (HL-60(TB)) | inhibition of growth at 10 µM [2] | inhibition of growth at 10 µM [3] | inhibition of growth at 10 µM (NCI-H522) | inhibition of growth at 10 µM [4] | inhibition of growth at 10 µM [5] | inhibition of growth at 10 µM (MDA-MB-435) | inhibition of growth at 10 µM (Malme-3M) | inhibition of growth at 10 µM (A498) | inhibition of growth at 10 µM (CAKI-1) | inhibition of growth at 10 µM [6] | inhibition of growth at 10 µM [7] | inhibition of growth at 10 µM (SNB-75) | inhibition of growth at 10 µM (MCF7) | inhibition of growth at 10 µM (T47D)
COC(=O)c1c(C(=O)OC)c2cc(N(C)C)ccn2c1C(=O)c1ccc(OC)c(OC)c1 | 9% | 0% | 12% | 18% | 0% | 3% | 0% | 6% | 0% | 0% | 27% | 10% | 11% | 1% | 1% | 0% | 0%
COC(=O)c1c(C(=O)OC)c2cc(OC)ccn2c1C(=O)c1cc(OC)c(OC)c(OC)c1 | 16% | 0% | 1% |  | 7% | 4% | 2% | 13% | 4% | 0% | 0% | 2% |  | 11% | 0% | 0% | 6%
CCOC(=O)c1c(C(=O)OCC)c2cc(C)ccn2c1C(=O)c1cc(OC)c(OC)c(OC)c1 | 39% |  |  |  |  |  |  |  |  |  |  |  |  |  |  |  | 
CCOC(=O)c1cc(C(=O)c2ccc(OC)cc2)n2cc(C)cc(C)c12 | 32% |  | 83% | 11% | 29% | 43% | 23% | 14% | 11% | 28% | 30% | 24% | 20% | 35% | 46% | 17% | 13%
CCOC(=O)c1cc(C(=O)c2cc(OC)c(OC)c(OC)c2)n2cc(C)cc(C)c12 | 3% | 0% | 0% | 29% | 6% | 8% | 45% | 0% | 4% | 25% |  | 13% | 2% | 3% | 11% | 4% | 18%
COc1cc(C(=O)c2cc(C(=O)O)c3cccc(C)n23)cc(OC)c1OC | 28% | 7% | 3% |  |  | 15% | 0% | 7% | 0% | 0% | 2% | 0% | 5% | 0% | 9% | 12% | 0%
COC(=O)c1c(C(=O)OC)c2c(C)cc(C)cn2c1C(=O)c1cc(OC)c(OC)c(OC)c1 | 36% |  |  |  |  |  |  |  |  |  |  |  |  |  |  |  | 
COC(=O)c1c(C(=O)OC)c2cc(OC)ccn2c1C(=O)c1ccc(OC)cc1 | 34% | 0% | 6% | 0% | 13% |  | 0% | 0% | 2% | 0% | 7% | 18% | 19% | 10% | 0% | 0% | 2%
CCOC(=O)c1cc(C(=O)c2cc(OC)c(OC)c(OC)c2)n2ccc(N(C)C)cc12 | 36% | 7% | 8% |  | 9% | 0% | 0% | 0% | 5% | 0% | 11% | 10% | 12% | 0% | 0% | 7% | 5%
